Measured values from patent US9751837B2, “Kinase inhibitors” (RESPIVERT LIMITED, priority 2014, dated 2017).
Values after ≈ are worked out from the molar mass of the structure shown. One block for each compound: values may come before it.

Experiments:
[1] = target: GSK 3α (Homo sapiens (Human), UniProt P49840); assay: GSK 3α enzyme inhibition (Method 2), Z-LYTE FRET; format: biochemical; conditions: read-out: IC50 Values for Enzyme Inhibition GSK3α
Description: The enzyme inhibitory activities of compounds disclosed herein are determined by FRET using synthetic peptides labelled with both donor and acceptor fluorophores (Z-LYTE, Invitrogen Ltd., Paisley, UK).
The following two assay variants can be used for determination of GSK 3α inhibition.
The inhibitory activities of compounds of the invention against the GSK 3α enzyme isoform (Invitrogen), are evaluated by determining the level of activation/phosphorylation of the target peptide. The GSK3-α protein (500 ng/mL, 2.5 μL) is mixed with the test compound (2.5 μL at either 4 μg/mL, 0.4 μg/mL, 0.04 μg/mL, or 0.004 μg/mL) for 2 hr at RT. The FRET peptide (8 μM, 2.5 μL), which is a phosphorylation target for GSK3α, and ATP (40 μM, 2.5 μL) are then added to the enzyme/compound mixture and the resulting mixture incubated for 1 hr. Development reagent (protease, 5 μL) is added for 1 hr prior to detection in a fluorescence microplate reader (Varioskan® Flash, ThermoFisher Scientific).
In all cases, the site-specific protease cleaves non-phosphorylated peptide only and eliminates the FRET signal. Phosphorylation levels of each reaction are calculated using the ratio of coumarin emission (donor) over fluorescein emission (acceptor), for which high ratios indicate high phosphorylation and low ratios indicate low phosphorylation levels.
This method follows the same steps as Method 1 above, but utilises a shorter period of mixing of the test compound (105 minutes instead of 2 hours) with the GSK3-α protein. In addition, the concentrations of test compound employed are either 10 μg/mL, 1 μg/mL, 0.1 μg/mL, or 0.01 μg/mL

[2] = Solubility in fasted-state simulated colonic fluid (FaSSCoF) at pH 6.5; format: physicochemical; conditions: 25 °C, pH 6.5, fassgf or other biorelevant, thermodynamic from solid
Method in brief: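 Compounds were suspended at up to 2-10 mg/mL in pH 6.5 Tris/maleate FaSSCoF containing a five-bile-acid mixture, phosphatidylcholine, palmitic acid and BSA. After 24 h equilibration at 25° C the suspension was filtered and the filtrate quantified by HPLC peak area against a standard.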

[3] = system: Jurkat cells; assay: Cell cytotoxicity assay (r); format: cell-based, human; conditions: 24 hours
Description: 1×10^5 Jurkat cells (immortalised human T lymphocytes) are added to the appropriate number of wells of a 96 well plate in 100 μL of media (RPMI supplemented with 10% foetal bovine serum). 1 μL of DMSO control (final concentration 1.0% v/v) or test compound (final concentration 20, 5 or 1 μg/mL) is added to the wells and incubated at 37° C., 5% CO2. After 24 hours, the plate is centrifuged at 1200 rpm for 3 minutes and the supernatant discarded. Cells are then resuspended in 150 μL (final concentration 7.5 μg/mL) of propidium iodide (PI) in PBS and incubated at 37° C., 5% CO2 for 15 minutes. After 15 minutes, cells are analysed by flow cytometry (BD accuri) using the FL3 window. The % viability is calculated as the % of cells that are PI negative in the test wells normalised to the DMSO control.

[4] = pH 6.5 FaSSCoF Solubility (mg/mL) Run 1
[5] = pH 6.5 FaSSCoF Solubility (mg/mL) Run 2

Sequence of GSK 3α (P49840 whole entry): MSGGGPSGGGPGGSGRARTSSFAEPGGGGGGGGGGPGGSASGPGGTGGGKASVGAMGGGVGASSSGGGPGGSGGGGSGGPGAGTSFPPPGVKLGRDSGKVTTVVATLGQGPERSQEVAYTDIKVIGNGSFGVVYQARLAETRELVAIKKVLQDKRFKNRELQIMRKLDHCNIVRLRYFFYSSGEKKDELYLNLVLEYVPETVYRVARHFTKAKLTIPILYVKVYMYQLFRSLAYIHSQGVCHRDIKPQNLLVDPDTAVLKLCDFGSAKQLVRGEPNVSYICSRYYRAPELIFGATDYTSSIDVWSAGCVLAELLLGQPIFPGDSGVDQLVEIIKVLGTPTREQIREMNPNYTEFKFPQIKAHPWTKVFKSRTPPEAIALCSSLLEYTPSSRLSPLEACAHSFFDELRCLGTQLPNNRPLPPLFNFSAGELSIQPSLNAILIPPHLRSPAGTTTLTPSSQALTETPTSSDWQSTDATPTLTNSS

IC50 [1]: 7.42 µM
Compound: COc1cc(Nc2cc(Oc3ccc(NC(=O)Nc4cc(C(C)(C)C)cc(NS(C)(=O)=O)c4OC)c4ccccc34)ccn2)ccc1C(=O)NCC(=O)N1CCOCC1 [17(e), 4-[[4-[[4-[[5-tert-butyl-3-(methanesulfonamido)-2-methoxy-phenyl]carbamoylamino]-1-naphthyl]oxy]-2-pyridyl]amino]-2-methoxy-N-(2-morpholino-2-oxo-ethyl)benzamide]

IC50 [1]: > 11.9 µM
Compound: COc1cc(Nc2cc(Oc3ccc(NC(=O)Nc4cc(C(C)(C)C)cc(NS(C)(=O)=O)c4OC)c4ccccc34)ccn2)ccc1C(=O)NCC(C)(C)N1CCOCC1 [17(n), 4-[[4-[[4-[[5-tert-butyl-3-(methanesulfonamido)-2-methoxy-phenyl]carbamoylamino]-1-naphthyl]oxy]-2-pyridyl]amino]-2-methoxy-N-(2-methyl-2-morpholino-propyl)benzamide]

IC50 [1]: > 12.1 µM
Compound: COc1cc(Nc2cc(Oc3ccc(NC(=O)Nc4cc(C(C)(C)C)cc(NS(C)(=O)=O)c4OC)c4ccccc34)ccn2)ccc1C(=O)NCCN1CCSCC1 [17(l), 4-[[4-[[4-[[5-tert-butyl-3-(methanesulfonamido)-2-methoxy-phenyl]carbamoylamino]-1-naphthyl]oxy]-2-pyridyl]amino]-2-methoxy-N-(2-thiomorpholinoethyl)benzamide]

IC50 [1]: 5.56 µM
Compound: COc1c(NC(=O)Nc2ccc(Oc3ccnc(Nc4ccc(OCCCN5CCOCC5)c(C#N)c4)c3)c3ccccc23)cc(C(C)(C)C)cc1NS(C)(=O)=O [Example 10, N-(5-(tert-Butyl)-3-(3-(4-((2-((3-cyano-4-(3-morpholinopropxy)phenyl)amino)pyridin-4-yl)oxy)naphthalen-1-yl)ureido)-2-methoxyphenyl)methanesulfonamide]

IC50 [1]: 0.225 µM
Compound: COc1cc(Nc2cc(Oc3ccc(NC(=O)Nc4cc(C(C)(C)C)cc(NS(C)(=O)=O)c4OC)c4ccccc34)ccn2)cc(OC)c1C(=O)O [Example 46, 4-[[4-[[4-[[5-tert-Butyl-3-(methanesulfonamido)-2-methoxyphenyl]carbamoylamino]-1-naphthyl]oxy]-2-pyridyl]amino]-2,6-dimethoxybenzoic acid]

IC50 [1]: > 11.9 µM
Compound: COc1cc(Nc2cc(Oc3ccc(NC(=O)Nc4cc(C(C)(C)C)cc(NS(C)(=O)=O)c4OC)c4ccccc34)ccn2)ccc1C(=O)NCCN1CCOCC1(C)C [17(k), 4-[[4-[[4-[[5-tert-butyl-3-(methanesulfonamido)-2-methoxy-phenyl]carbamoylamino]-1-naphthyl]oxy]-2-pyridyl]amino]-N-[2-(3,3-dimethylmorpholin-4-yl)ethyl]-2-methoxy-benzamide]

IC50 [1]: 2.77 µM
Compound: COc1cc(Nc2cc(Oc3ccc(NC(=O)Nc4cc(C(C)(C)C)cc(NS(C)(=O)=O)c4OC)c4ccccc34)ccn2)ccc1C(=O)NCCN1CCC(O)CC1 [17(m), 4-[[4-[[4-[[5-tert-butyl-3-(methanesulfonamido)-2-methoxy-phenyl]carbamoylamino]-1-naphthyl]oxy]-2-pyridyl]amino]-N-[2-(4-hydroxy-1-piperidyl)ethyl]-2-methoxy-benzamide]

IC50 [1]: 11.8 µM
Compound: COc1cc(Nc2cc(Oc3ccc(NC(=O)Nc4cc(C(C)(C)C)cc(NS(C)(=O)=O)c4OC)c4ccccc34)ccn2)ccc1C(=O)NCCN1CCC(F)(F)CC1 [17(al), 4-[[4-[[4-[[5-tert-butyl-3-(methanesulfonamido)-2-methoxy-phenyl]carbamoylamino]-1-naphthyl]oxy]-2-pyridyl]amino]-N-[2-(4,4-difluoro-1-piperidyl)ethyl]-2-methoxy-benzamide]

IC50 [1]: 4.04 µM
Compound: COc1cc(Nc2cc(Oc3ccc(NC(=O)Nc4cc(C(C)(C)C)cc(NS(C)(=O)=O)c4OC)c4ccccc34)ccn2)ccc1C(=O)NCCN1CCS(=O)(=O)CC1 [17(r), 4-[[4-[[4-[[5-tert-butyl-3-(methanesulfonamido)-2-methoxy-phenyl]carbamoylamino]-1-naphthyl]oxy]-2-pyridyl]amino]-N-[2-(1,1-dioxo-1,4-thiazinan-4-yl)ethyl]-2-methoxy-benzamide]

IC50 [1]: 1.09 µM
Compound: COc1cc(Nc2cc(Oc3ccc(NC(=O)Nc4cc(C(C)(C)C)cc(NS(C)(=O)=O)c4OC)c4ccccc34)ccn2)ccc1C(=O)NCCN1CCCN(C)CC1 [17(f), 4-[[4-[[4-[[5-tert-butyl-3-(methanesulfonamido)-2-methoxy-phenyl]carbamoylamino]-1-naphthyl]oxy]-2-pyridyl]amino]-2-methoxy-N-[2-(4-methyl-1,4-diazepan-1-yl)ethyl]benzamide]

IC50 [1]: 1.34 µM
Compound: COCCOCCOCCNC(=O)c1ccc(Nc2cc(Oc3ccc(NC(=O)Nc4cc(C(C)(C)C)cc(NS(C)(=O)=O)c4OC)c4ccccc34)ccn2)cc1OC [Example 5, 4-((4-((4-(3-(5-(tert-Butyl)-2-methoxy-3-(methylsulfonamido)phenyl)ureido)naphthalen-1-yl)oxy)pyridin-2-yl)amino)-2-methoxy-N-(2-(2-(2-methoxyethoxy)ethoxy)ethyl)benzamide]

IC50 [1]: 2.14 µM
Compound: COCCOCCOCCS(=O)(=O)c1ccc(Nc2cc(Oc3ccc(NC(=O)Nc4cc(C(C)(C)C)cc(NS(C)(=O)=O)c4OC)c4ccccc34)ccn2)cc1OC [Example 12, 1-[5-tert-Butyl-3-(methanesulfonamido)-2-methoxy-phenyl]-3-[4-[[2-[3-methoxy-4-[2-[2-(2-methoxyethoxy)ethoxy]ethylsulfonyl]anilino]-4-pyridyl]oxy]-1-naphthyl]urea]

solubility thermodynamic at 24 h [2, 4]: 13 µg/mL (≈ 15.2 µM) | solubility thermodynamic at 24 h [2, 5]: 15 µg/mL (≈ 17.6 µM)
Compound: COc1cc(Nc2cc(Oc3ccc(NC(=O)Nc4cc(C(C)(C)C)cc(NS(C)(=O)=O)c4OC)c4ccccc34)ccn2)ccc1C(=O)NCCN1CCN(C(C)C)CC1 [17(bf), 4-((4-((4-(3-(5-(tert-Butyl)-2-methoxy-3-(methylsulfonamido)phenyl)ureido)naphthalen-1-yl)oxy)pyridin-2-yl)amino)-N-(2-(4-isopropylpiperazin-1-yl)ethyl)-2-methoxybenzamide]
% Viability at 5 μg/mL ([3]; 5 μg/mL): 1.5% | % Viability at 20 μg/mL [3]: 0.6%

solubility thermodynamic at 24 h [2, 4]: < 1 µg/mL | solubility thermodynamic at 24 h [2, 5]: < 1 µg/mL
Compound: COc1cc(Nc2nccc(Oc3ccc(NC(=O)Nc4cc(C(C)(C)C)cc(NS(C)(=O)=O)c4OC)c4ccccc34)n2)ccc1S(N)(=O)=O [Example 28, 4-((4-((4-(3-(5-(tert-Butyl)-2-methoxy-3-(methylsulfonamido)phenyl)ureido)naphthalen-1-yl)oxy)pyrimidin-2-yl)amino)-2-methoxybenzenesulfonamide]
% Viability at 1 μg/mL [3]: 100.0%

solubility thermodynamic at 24 h [2, 4]: 47 µg/mL (≈ 57 µM) | solubility thermodynamic at 24 h [2, 5]: 49 µg/mL (≈ 59.4 µM)
Compound: COc1cc(Nc2nccc(Oc3ccc(NC(=O)Nc4cc(C(C)(C)C)cc(NS(C)(=O)=O)c4OC)c4ccccc34)n2)ccc1C(=O)NCCC1CCN(C)CC1 [17(an), 4-((4-((4-(3-(5-(tert-butyl)-2-methoxy-3-(methylsulfonamido)phenyl)ureido)naphthalen-1-yl)oxy)pyrimidin-2-yl)amino)-2-methoxy-N-(2-(1-methylpiperidin-4-yl)ethyl)benzamide]
% Viability at 20 μg/mL [3]: 1.1%

solubility thermodynamic at 24 h [2, 4]: < 1 µg/mL | solubility thermodynamic at 24 h [2, 5]: < 1 µg/mL
Compound: COc1cc(Nc2cc(Oc3ccc(NC(=O)Nc4cc(C(C)(C)C)cc(NS(C)(=O)=O)c4OC)c4ccccc34)ccn2)ccc1S(=O)(=O)N(C)CCN1CCN(C)CC1 [17(bb), 4-((4-((4-(3-(5-(tert-Butyl)-2-methoxy-3-(methylsulfonamido)phenyl)ureido)naphthalen-1-yl)oxy)pyridin-2-yl)amino)-2-methoxy-N-methyl-N-(2-(4-methylpiperazin-1-yl)ethyl)benzenesulfonamide]
% Viability at 20 μg/mL [3]: 0.2%

solubility thermodynamic at 24 h [2, 4]: 14 µg/mL (≈ 17.1 µM) | solubility thermodynamic at 24 h [2, 5]: 12 µg/mL (≈ 14.7 µM)
Compound: COc1cc(Nc2cc(Oc3ccc(NC(=O)Nc4cc(C(C)(C)C)cc(NS(C)(=O)=O)c4OC)c4ccccc34)ccn2)ccc1C(=O)NCC(CO)(CO)CO [Example 38, 4-((4-((4-(3-(5-(tert-Butyl)-2-methoxy-3-(methylsulfonamido)phenyl)ureido)naphthalen-1-yl)oxy)pyridin-2-yl)amino)-N-(3-hydroxy-2,2-bis(hydroxymethyl)propyl)-2-methoxybenzamide]
% Viability at 1 μg/mL [3]: 90.0% | % Viability at 20 μg/mL [3]: 6.0%
